Patent US6955907B1, “Alkaline, protease VapK suitable for laundry detergent, VapK gene, recombinant expression vector, and transformed microorganisms” (priority 1999, dated 2005)
Entries after “also recorded” stand apart in the source; their conditions may differ.

Tests used:
[1] = tested on: protease VapK; test: Effects of inhibitors on the activity of the protease VapK; type: biochemical, Vibrio metschnikovii KS1
Description: (§1) The activity of the alkaline protease was determined by the method of Yanagida et al with minor modifications. The reaction mixture was prepared by mixing 100 mM sodium carbonate solution with the supernatant formed after centrifuging the culture broth at 6,000 rpm for 15 minutes. 0.5 ml of the fermentation broth was mixed with 2.5 ml of 1% prewarmed casein solution in 100 mM sodium carbonate buffer (pH 10.5). The resulting mixture was incubated at 37° C. for 10 minutes. The reaction was terminated by adding a solution consisting 0.22 M trichloroacetic acid, 0.22 M sodium acetate and 0.22 M acetic acid. The reaction mixture was placed on ice for 10 minutes followed by centrifugation. 1 ml of the supernatant was mixed with 9 ml of distilled water. The optical density (O.D.) was measured at 280 nm. The result is indicated as unit. One unit of the enzyme is defined as the amount of protein which produces an increase of 0.1 absorbance unit under the assay conditions.

[2] = tested on: protease VapK; test: Resistance of the protease VapK to surfactants (N-succinyl-ala-ala-pro-phe-p-nitroanilide substrate); type: biochemical, Vibrio metschnikovii KS1; conditions: for Relative Residual Activity (%): 25° C. for 25 minutes, relative to activity without surfactant
Description: In addition, the resistance of the protease VapK to various surfactants was tested. The enzyme sample was appropriately diluted in distilled water. The diluted solution was mixed with each surfactant in the same ratio. The mixture was reacted at 25° C. for 25 minutes. A substrate solution of 5 mM N-succinyl-ala-ala-pro-phe-p-nitroanilide in 1 M tris-HCl, pH 9.0 was added to the reaction mixture in the ratio of 1 to 10. The reaction mixture was reacted at 25° C. for 30 minutes. The optical density of the reaction mixture was measured at 410 nm to determine the enzymatic activity of the protease VapK.

[3] = tested on: casein; test: Alkaline protease activity of culture broth (casein method of Yanagida et al, modified); type: biochemical
Description: as §1
E. coil HB101 harboring the plasmid pSB1 was cultured in an LB medium. The culture broth was recovered and subjected to electrophoresis. As a result (FIG. 8), the expressed protease VapK was detected at the 27 kDa band. In addition, the proteolytic activity of the enzyme was measured.

[4] = type: biochemical
Excerpt: It can be seen from the above results that the vapk gene contained in the recombinant plasmid pSB1 was expressed in E. coli HB 101 and the expressed protease VapK was secreted extracellularly. […] (FIG. 9).

[5] = inhibitor 1 mM, pre-reacted 20 minutes at 4° C.
[6] = inhibitor 1 mM, pre-reacted 20 minutes at 20° C.

O=C(O)CN(CCN(CC(=O)O)CC(=O)O)CC(=O)O [EDTA, ethylenediamine tetraacetic acid]
Relative Activity (%) ([1]; inhibitor 100 mM, pre-reacted 20 minutes at 4° C.): 86% | Relative Activity (%) ([1]; inhibitor 100 mM, pre-reacted 20 minutes at 20° C.): 100%

O=C(O)CN(CCOCCOCCN(CC(=O)O)CC(=O)O)CC(=O)O [EGTA, ethyleneglycol-bis(β-aminoethyl ether)N,N,N′,N′-tetraacetic acid]
Relative Activity (%) [1, 5]: 100% | Relative Activity (%) [1, 6]: 100%

N[C@@H](CS)C(=O)O [L-cysteine]
Relative Activity (%) [1, 5]: 99% | Relative Activity (%) [1, 6]: 100%

O=S(=O)(F)Cc1ccccc1 [PMSF, phenylmethanesulfonyl fluoride]
inhibition of the enzymatic activity of the protease VapK (in words) [1]: inhibited | Relative Activity (%) [1, 5]: 6% | Relative Activity (%) [1, 6]: 13%

CCCCCCCCCCCCOS(=O)(=O)[O-].[Na+] [SDS, sodium dodecyl sulfate]
Relative Residual Activity (%) ([2]; surfactant 1000 ppm): >100% | Relative Residual Activity (%) ([2]; surfactant 1500 ppm): <70%

Polyoxyethylene Alkylether [Polyoxyethylene Alkylether (EO = 15 mol)]
Relative Residual Activity (%) ([2]; surfactant 30000 ppm): >100%

Sodium-α-olefin sulfonate [AOS]
Relative Residual Activity (%) ([2]; surfactant 10000 ppm): >100% | Relative Residual Activity (%) ([2]; surfactant 15000 ppm): >70%

B1: VapK: alkaline serine protease of 27 kDa produced by Vibrio metschnikovii KS1, amino acid sequence SEQ ID NO. 1 (protein, listed as Vibrio metschnikovii)
chain: MFKKNVNRTVLAGLLLPTSISLAIASQLKDQEVPSFTPSVAVENHQTEQRYFVTYVPGATSGPMRMSQNGLTETDFSLQKAADILSTQQVTVINHLESLHTSVVRVTPTQAKQLLDNADVAMIEVDPIRYLFDAEIEPYAQQTPYGIRMVQADQLSDVYAANRKVCVIDSGYLRNHVDLPSAGVTGSTFSGHGSWFTDGNGHGTHVAGTIVALDNNVGVVGVLPSGLVGLHNVKIFNDSGVWTRASDLIQAIQSCQSAGSHVVNMSLGGSQGSVTEQKPMRNFYQQGMLLVAAAGNSGNSGFSYPASYDAVVSVAAVNSSGNVANFSQFNSQVELSAPGVGVLSTGNNGGYLSYSGTSMASPHVAGVAALVWSHFPQCRPERIRQSLSQTALDRGAAGRDNFYGWGIVQARRAYNWLSRNGC
Activity (proteolytic activity of expressed Vap K) ([3]; Strain E. coli HB 101 harboring plasmid pSB1, LB medium culture broth): 30.3 unit/ml | Activity (proteolytic activity of expressed Vap K) ([3]; Strain Vibrio metschnikovii KS1, culture broth): 956.2 unit/ml | resistance / stability to surfactants (in words) ([2]; surfactants such as LAS, SDS, AOS, polyoxyethylene alkylether): very resistant; also recorded: high resistance; also recorded: very stable | influence of temperature on stability [4]: influenced slightly | pH of optimum activity [4]: 10.5 | stability over pH [4]: stability in the entire pH range | temperature of optimum activity [4]: 50 °C
